The record followed here is patent publication US20200131176A1, “SELECTIVE INHIBITORS OF CLINICALLY IMPORTANT MUTANTS OF THE EGFR TYROSINE KINASE” (CS Pharmatech Limited, priority 2017, published 2020).

In one series the test system is PC-9 cells. The experiment in a line: PC-9 growth inhibition assay (cell proliferation, CellTiter-Glo, 72 h). In kind it is cell-based, human. The following applies: Homo sapiens, PC-9, 72 h, cellular proliferation, PC9 cells, single mutant EGFR, read-out: PC9 IC50 (nM) SM. Background: In ATP-based viability assays light output follows the ATP content of the culture.

A further series deals with H1975 cells. As to the kind of experiment: H1975 inhibition assay (cell proliferation, CellTiter-Glo, 72 h). In kind it is cell-based, human. The settings on record: Homo sapiens, NCI-H1975, 72 h, cellular proliferation, double mutant EGFR, read-out: NCI-H1975 IC50 (nM) DM.
The next series relates to A431 cells. As to the kind of experiment: A431 inhibition assay (cell proliferation, CellTiter-Glo, 72 h). Format: cell-based, human. The settings on record: Homo sapiens, A-431, 72 h, cellular proliferation, wild type EGFR, read-out: A431 IC50 (nM) WT.
The nature of series [1]: Mouse in vivo PK study. The following applies: male CD1 mice, 1 mg/kg IV; for F: 10 mg/kg PO; for AUC / clearance / half-life: mouse, plasma; for half-life: read-out: T1/2 (IV) (converted). Here is the method: To determine the drug concentration in plasma of the compounds of the present disclosure following intravenous and oral administration in male CD 1 Mice, pharmacokinetic profile and PK parameters were obtained.
Test animals: healthy male CD1 mice (body weight 20-30 g, 18 mice, free access to food and water), provided by Sibeifu laboratory. […]
Samples collection: the healthy animals were used, weighed the bodyweight and marked at tail and cage card prior to dosing. Blood samples (0.03 mL per time point) were collected from dorsal metatarsal vein at 0.083, 0.25, 0.5, 1, 2, 4, 8, 24 h post dose for IV group and at 0.25, 0.5, 1, 2, 4, 8, 24 h post dose for PO group, the terminal time point was collected from heart (˜0.3 mL). The blood samples were put into the tube with heparin-Na coated and then put on the cold box, centrifuged at 4° C. 4000 g, 5 minutes immediately after collecting all samples per time point to get plasma. The plasma samples were stored in a freezer at −75±15° C. prior to analysis.
The drug concentration was determined by LC/MS/MS method, and the PK parameters were observed as follows.

Series [2] is described as follows: Mouse in vivo PK study. The settings on record: mouse, plasma, male CD1 mice, 10 mg/kg PO; for half-life: read-out: T1/2 (PO) (converted).
Series [3] has as its target hERG channel (HEK 293 cell line stably expressing hERG channel) (Homo sapiens, UniProt Q12809). The experiment in a line: cell-based.
For series [4], the target named is T1, Exon 19 deletion EGFR (activating single mutant) in PC-9 cells (Homo sapiens, UniProt P00533, DEL746-750).
T1 construct: cellular phosphorylation of endogenous p-EGFR; host or cells: PC9 (PC-9) human lung cell line
T1 sequence (P00533 with tags, fused parts or gaps DEL746-750): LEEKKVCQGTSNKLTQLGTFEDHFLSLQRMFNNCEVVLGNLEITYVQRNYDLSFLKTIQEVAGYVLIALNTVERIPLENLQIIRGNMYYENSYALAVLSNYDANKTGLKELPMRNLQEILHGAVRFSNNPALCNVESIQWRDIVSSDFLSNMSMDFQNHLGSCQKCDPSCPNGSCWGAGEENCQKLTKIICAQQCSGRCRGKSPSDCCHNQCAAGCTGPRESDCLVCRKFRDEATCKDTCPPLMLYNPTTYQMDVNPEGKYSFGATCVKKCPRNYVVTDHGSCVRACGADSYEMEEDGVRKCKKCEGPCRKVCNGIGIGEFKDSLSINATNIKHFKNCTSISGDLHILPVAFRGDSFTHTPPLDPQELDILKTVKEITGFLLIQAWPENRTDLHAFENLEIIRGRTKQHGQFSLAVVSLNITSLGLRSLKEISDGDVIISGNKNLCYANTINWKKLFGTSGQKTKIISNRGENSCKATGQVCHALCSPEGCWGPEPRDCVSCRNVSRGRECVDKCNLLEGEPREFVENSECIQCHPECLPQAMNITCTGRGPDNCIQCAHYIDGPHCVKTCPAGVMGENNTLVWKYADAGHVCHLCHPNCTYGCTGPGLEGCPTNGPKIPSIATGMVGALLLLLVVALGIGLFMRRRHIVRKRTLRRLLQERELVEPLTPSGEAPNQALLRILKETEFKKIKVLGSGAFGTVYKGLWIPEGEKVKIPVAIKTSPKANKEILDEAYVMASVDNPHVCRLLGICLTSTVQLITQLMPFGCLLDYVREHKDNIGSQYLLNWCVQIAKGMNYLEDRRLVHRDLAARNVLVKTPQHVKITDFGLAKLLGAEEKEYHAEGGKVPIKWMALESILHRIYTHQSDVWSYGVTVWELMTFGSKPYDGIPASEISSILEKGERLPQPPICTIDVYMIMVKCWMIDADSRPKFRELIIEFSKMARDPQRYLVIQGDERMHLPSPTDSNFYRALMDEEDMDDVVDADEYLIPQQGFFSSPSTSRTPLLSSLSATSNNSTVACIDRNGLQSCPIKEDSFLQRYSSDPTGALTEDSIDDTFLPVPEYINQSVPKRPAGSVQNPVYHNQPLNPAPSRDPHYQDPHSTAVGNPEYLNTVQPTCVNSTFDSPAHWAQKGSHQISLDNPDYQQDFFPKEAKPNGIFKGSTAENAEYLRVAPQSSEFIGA
As to the kind of experiment: Exon 19 deletion EGFR PC-9 cellular autophosphorylation assay (p-EGFR ELISA). In kind it is cell-based. The settings on record: PC9, 2 h treatment, read-out: SM (PC9) IC50. In general terms: An ELISA detects its analyte on a solid surface through an enzyme-linked reagent.

The target of series [5] is T2, L858R/T790M double mutant EGFR in H1975 cells (Homo sapiens, UniProt P00533, L858R/T790M).
T2 construct: endogenous in cells; host or cells: H1975 cells
T2 sequence (P00533 25-1210 T790M/L858R): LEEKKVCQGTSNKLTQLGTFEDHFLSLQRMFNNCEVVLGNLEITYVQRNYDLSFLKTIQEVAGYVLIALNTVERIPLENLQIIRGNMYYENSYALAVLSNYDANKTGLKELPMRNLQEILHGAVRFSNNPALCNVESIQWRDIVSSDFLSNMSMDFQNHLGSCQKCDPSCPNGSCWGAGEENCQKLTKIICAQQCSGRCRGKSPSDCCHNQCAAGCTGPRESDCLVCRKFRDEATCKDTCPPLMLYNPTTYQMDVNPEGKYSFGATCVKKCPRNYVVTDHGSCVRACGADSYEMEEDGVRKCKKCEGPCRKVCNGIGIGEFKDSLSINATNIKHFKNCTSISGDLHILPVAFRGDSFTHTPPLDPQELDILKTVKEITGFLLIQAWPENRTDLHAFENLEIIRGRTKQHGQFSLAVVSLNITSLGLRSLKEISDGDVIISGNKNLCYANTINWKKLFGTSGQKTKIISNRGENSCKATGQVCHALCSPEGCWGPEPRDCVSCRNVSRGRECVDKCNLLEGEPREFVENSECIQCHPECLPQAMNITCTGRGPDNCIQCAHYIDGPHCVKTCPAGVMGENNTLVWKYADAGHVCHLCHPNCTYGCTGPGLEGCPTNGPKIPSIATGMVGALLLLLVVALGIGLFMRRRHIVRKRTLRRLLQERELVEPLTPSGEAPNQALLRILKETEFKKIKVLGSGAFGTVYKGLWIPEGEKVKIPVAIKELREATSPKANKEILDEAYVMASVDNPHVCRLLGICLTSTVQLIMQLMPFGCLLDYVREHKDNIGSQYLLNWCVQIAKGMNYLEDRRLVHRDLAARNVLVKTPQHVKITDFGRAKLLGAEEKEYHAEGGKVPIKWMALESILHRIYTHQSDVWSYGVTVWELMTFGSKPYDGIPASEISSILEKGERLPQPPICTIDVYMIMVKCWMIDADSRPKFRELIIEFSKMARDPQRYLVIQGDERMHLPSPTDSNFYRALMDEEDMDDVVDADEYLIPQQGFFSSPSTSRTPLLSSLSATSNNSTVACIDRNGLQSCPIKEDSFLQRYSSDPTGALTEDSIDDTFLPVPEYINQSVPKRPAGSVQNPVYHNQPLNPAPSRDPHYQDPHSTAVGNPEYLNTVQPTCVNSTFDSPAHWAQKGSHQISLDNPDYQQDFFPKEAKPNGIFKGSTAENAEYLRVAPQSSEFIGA
The experiment in a line: L858R/T790M double mutant H1975 autophosphorylation inhibition assay (ELISA). Format: cell-based. The following applies: cellular EGFR autophosphorylation, H1975, 2 h treatment; read-out: DM (H1975) IC50.

Series [6] has as its target Wild type EGFR in A431 cells (Homo sapiens, UniProt P00533). The following applies: WT (A431) IC50 nM, cellular EGFR autophosphorylation, A431, 2 h treatment then EGF stimulation 10 min.

Where “and” joins values, the source holds several entries; their conditions need not be identical. Equal values may be shown once. Where a name gives a salt, the structure may show the parent alone. Read-outs that look alike come from different tables or passages of the source.

Chain of hERG channel (HEK 293 cell line stably expressing hERG channel) (Q12809 whole entry): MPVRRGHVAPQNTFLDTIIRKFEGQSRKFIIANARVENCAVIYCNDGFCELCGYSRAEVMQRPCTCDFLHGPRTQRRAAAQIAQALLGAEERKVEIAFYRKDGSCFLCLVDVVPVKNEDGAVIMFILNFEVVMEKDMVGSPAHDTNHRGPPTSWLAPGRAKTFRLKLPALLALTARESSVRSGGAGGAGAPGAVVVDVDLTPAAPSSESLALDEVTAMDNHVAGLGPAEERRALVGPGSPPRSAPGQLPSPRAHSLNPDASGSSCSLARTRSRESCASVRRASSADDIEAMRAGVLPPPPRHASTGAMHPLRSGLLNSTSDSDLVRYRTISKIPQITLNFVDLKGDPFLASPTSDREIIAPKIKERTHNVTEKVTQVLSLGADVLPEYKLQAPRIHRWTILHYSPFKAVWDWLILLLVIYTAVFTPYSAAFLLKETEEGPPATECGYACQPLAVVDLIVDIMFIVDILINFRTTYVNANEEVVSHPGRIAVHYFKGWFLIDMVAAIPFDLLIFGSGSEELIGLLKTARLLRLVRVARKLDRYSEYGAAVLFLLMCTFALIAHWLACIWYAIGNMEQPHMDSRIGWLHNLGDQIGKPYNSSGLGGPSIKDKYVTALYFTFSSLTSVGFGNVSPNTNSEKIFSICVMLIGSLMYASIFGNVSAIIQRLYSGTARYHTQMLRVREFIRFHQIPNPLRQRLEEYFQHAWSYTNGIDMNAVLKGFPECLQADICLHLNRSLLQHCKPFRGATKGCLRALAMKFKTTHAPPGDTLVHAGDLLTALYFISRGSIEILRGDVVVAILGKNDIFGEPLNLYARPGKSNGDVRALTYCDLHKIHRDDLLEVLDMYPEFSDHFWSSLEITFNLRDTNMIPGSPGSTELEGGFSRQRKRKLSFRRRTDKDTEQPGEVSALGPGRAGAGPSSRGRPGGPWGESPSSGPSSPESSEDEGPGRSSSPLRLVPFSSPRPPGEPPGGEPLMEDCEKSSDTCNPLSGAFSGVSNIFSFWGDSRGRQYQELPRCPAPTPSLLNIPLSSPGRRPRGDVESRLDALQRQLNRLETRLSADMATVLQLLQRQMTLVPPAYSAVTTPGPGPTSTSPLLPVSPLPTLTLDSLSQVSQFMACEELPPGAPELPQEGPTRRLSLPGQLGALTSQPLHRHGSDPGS
Chain of Wild type EGFR in A431 cells (P00533 25-1210): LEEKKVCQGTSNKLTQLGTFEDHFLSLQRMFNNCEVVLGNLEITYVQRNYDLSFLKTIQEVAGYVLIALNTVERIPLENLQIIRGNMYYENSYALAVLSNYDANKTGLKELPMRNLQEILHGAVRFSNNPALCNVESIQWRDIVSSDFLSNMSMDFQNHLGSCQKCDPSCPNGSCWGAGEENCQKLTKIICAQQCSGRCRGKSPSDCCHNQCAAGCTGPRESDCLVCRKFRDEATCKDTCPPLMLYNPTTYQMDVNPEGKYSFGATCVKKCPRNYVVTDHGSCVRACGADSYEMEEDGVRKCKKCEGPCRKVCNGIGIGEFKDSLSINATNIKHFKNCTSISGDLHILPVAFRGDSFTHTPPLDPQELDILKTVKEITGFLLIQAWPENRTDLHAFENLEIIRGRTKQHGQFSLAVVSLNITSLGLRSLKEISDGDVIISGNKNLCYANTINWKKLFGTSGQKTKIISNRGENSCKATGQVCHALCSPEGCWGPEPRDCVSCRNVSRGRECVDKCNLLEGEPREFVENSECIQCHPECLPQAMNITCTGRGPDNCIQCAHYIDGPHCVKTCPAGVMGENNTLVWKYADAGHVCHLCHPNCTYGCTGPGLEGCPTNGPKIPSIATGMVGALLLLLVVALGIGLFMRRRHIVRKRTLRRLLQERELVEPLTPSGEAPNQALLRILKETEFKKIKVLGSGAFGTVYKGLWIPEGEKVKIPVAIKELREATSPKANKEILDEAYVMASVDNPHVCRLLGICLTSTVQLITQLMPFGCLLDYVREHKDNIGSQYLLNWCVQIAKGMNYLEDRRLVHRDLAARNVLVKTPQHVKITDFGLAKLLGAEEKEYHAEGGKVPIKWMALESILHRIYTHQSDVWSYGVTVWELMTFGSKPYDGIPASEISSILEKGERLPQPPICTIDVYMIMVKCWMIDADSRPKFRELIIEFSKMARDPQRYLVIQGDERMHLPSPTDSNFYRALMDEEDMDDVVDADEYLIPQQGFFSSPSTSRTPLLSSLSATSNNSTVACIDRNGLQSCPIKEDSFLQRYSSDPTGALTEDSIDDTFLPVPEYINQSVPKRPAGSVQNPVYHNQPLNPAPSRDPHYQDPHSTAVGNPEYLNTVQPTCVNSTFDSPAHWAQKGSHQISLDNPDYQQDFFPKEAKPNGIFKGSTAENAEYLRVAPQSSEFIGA

As a reminder, the IC50 is the point on the concentration scale where inhibition reaches its midpoint. A word on the AUC: it is the area under the concentration-time curve, a measure of exposure. As usually defined, the clearance is the rate of elimination divided by the concentration. Read a high clearance as a high capacity for elimination. For orientation: Cmax means the maximum level reached in the sampled fluid or tissue. On to `C=CC(=O)Nc1cc(Nc2nccc(-c3cnc4c(c3)c(C)cn4C)n2)c(OC)cc1N(C)CCN(C)C` [Example 11, N-(5-((4-(1,3-Dimethyl-1H-pyrrolo[2,3-b]pyridin-5-yl)pyrimidin-2-yl)amino)-2-((2-(dimethylamino)ethyl)(methyl)amino)-4-methoxyphenyl) acrylamide], for which, in the series with PC-9 cells, the IC50 is 7.73 nM. The IC50 in the series with H1975 cells was 6.51 nM. For the same compound, in the series on A431 cells, the IC50 turned out to be 2530 nM. For the same compound, in “Mouse in vivo PK study [1]”, the F was found to be 29.3%, the area under the curve (AUC) was found to be 153 ng·h/mL, the clearance turned out to be 114 mL/min/kg and the half-life was 66 min. Further, in the series “Mouse in vivo PK study [2]”, the area under the curve (AUC) came to 641 ng·h/mL, the concentration peaked (Cmax) at 97 ng/mL and the half-life was 304 min. For the same compound, inhibition in [3] was half-maximal at 5780 nM (IC50).

Regarding `C=CC(=O)Nc1cc(Nc2nccc(-n3nc(OC)c4ccccc43)n2)c(OC)cc1N(C)CCN(C)C` [Example 8, N-(2-((2-(Dimethylamino)ethyl)(methyl)amino)-4-methoxy-5-((4-(3-methoxy-1H-indazol-1-yl)pyrimidin-2-yl)amino)phenyl)acrylamide], the IC50 in the series with PC-9 cells was 18.6 nM; in the series on H1975 cells, 11.6 nM; in the series on A431 cells, 1800 nM; in series [4], 27.6 nM and 29.4 nM; in [5], 20.7 nM and 38.8 nM; in series [3], 2230 nM. The IC50 in series [6] is 327 nM and 464 nM.

With `C=CC(=O)Nc1cc(Nc2nccc(-c3cc(C#N)c4c(c3)c(C)cn4C)n2)c(OC)cc1NCCN(C)C` [Example 28, N-(5-((4-(7-cyano-1,3-dimethyl-1H-indol-5-yl)pyrimidin-2-yl)amino)-2-((2-(dimethylamino)ethyl)amino)-4-methoxyphenyl)acrylamide], the IC50 came to 81.4 nM in the series on PC-9 cells, 13.6 nM with H1975 cells and 912 nM in the series with A431 cells.

Take `C=CC(=O)Nc1cc(Nc2nccc(-c3cc4c(C)c[nH]c4c(C#N)n3)n2)c(OC)cc1N(C)CCN(C)C` [Example 3, N-(5-((4-(7-Cyano-3-methyl-1H-pyrrolo[2,3-c]pyridin-5-yl)pyrimidin-2-yl)amino)-2-((2-(dimethylamino)ethyl)(methyl)amino)-4-methoxyphenyl)acryl amide]: the IC50 in the series on PC-9 cells worked out at 4.15 nM; in the series with H1975 cells, 4.38 nM; in the series on A431 cells, 1380 nM; in [4], 5.15 nM; in series [5], 2.16 nM; in [3], 858 nM. The IC50 in series [6] was 63.1 nM.

As for `C=CC(=O)Nc1cc(Nc2nccc(-n3nc(NC)c4ccsc43)n2)c(OC)cc1N(C)CCN(C)C` [Example 23, N-(2-((2-(dimethylamino)ethyl)(methyl)amino)-4-methoxy-5-((4-(3-(methylamino)-1H-thieno[2,3-c]pyrazol-1-yl)pyrimidin-2-yl)amino)phenyl)acrylamide], the figures for the IC50 in the series with PC-9 cells, in the series with H1975 cells and in the series on A431 cells were 3.87 nM, 7.35 nM and 566 nM, respectively.

On to `[2H]C([2H])([2H])N(CCN(C)c1cc(OC)c(Nc2nccc(-c3cc(C#N)c4c(c3)c(C)cn4C)n2)cc1NC(=O)C=C)C([2H])([2H])[2H]` [Example 27, N-(2-((2-(Bis(methyl-d3)amino)ethyl)(methyl)amino)-5-((4-(7-cyano-1,3-dimethyl-1H-indol-5-yl)pyrimidin-2-yl)amino)-4-methoxyphenyl)acrylamide mesylate], for which the IC50 with H1975 cells was 2.26 nM. Also, in “Mouse in vivo PK study [1]”, the F came to 31.4%, the AUC was 297 ng·h/mL, the clearance turned out to be 60.7 mL/min/kg and the half-life is 106 min. Moreover, in “Mouse in vivo PK study [2]”, the exposure (AUC) was 1040 ng·h/mL, the Cmax worked out at 99 ng/mL and the half-life is 219 min.

As to `C=CC(=O)Nc1cc(Nc2nccc(-n3nc(NC)c4cc(Cl)sc43)n2)c(OC)cc1N(C)CCN(C)C` [Example 24, N-(5-((4-(5-chloro-3-(methylamino)-1H-thieno[2,3-c]pyrazol-1-yl)pyrimidin-2-yl)amino)-2-((2-(dimethylamino)ethyl)(methyl)amino)-4-methoxyphenyl)acrylamide], the values for the IC50 in the series on PC-9 cells, in the series on H1975 cells and in the series with A431 cells were 1.57 nM, 2.43 nM and 217 nM, respectively.

For the compound `C=CC(=O)Nc1cc(Nc2nccc(-n3nc(NCC)c4ncccc43)n2)c(OC(F)F)cc1N(C)CCN(C)C` [Example 20, N-(4-(Difluoromethoxy)-2-((2-(dimethylamino)ethyl)(methyl)amino)-5-((4-(3-(ethylamino)-1H-pyrazolo[4,3-b]pyridin-1-yl)pyrimidin-2-yl)amino)phenyl)acrylamide], the IC50 in the series on PC-9 cells was 0.91 nM; in the series on H1975 cells it was 1.08 nM; with A431 cells, 97.6 nM; in series [4], 1.38 nM; in series [5], 1.07 nM; in series [3], 500 nM. For the same compound, in series [6], half-maximal inhibition (IC50) was put at 19 nM.

Take `C=CC(=O)Nc1cc(Nc2nccc(-n3nc(N(C)C)c4cnc(C)cc43)n2)c(OC)cc1N(C)CCN(C)C` [Example 1, N-(5-((4-(3-(Dimethylamino)-6-methyl-1H-pyrazolo[4,3-c]pyridin-1-yl)pyrimidin-2-yl)amino)-2-((2-(dimethylamino)ethyl)(methyl)amino)-4-methoxyphenyl)acrylamide]: the IC50 was found to be 9.24 nM in the series with PC-9 cells, 11.4 nM in the series on H1975 cells and 2140 nM with A431 cells.

Consider `C=CC(=O)Nc1cc(Nc2nccc(-c3cnc4c(c3)c(Cl)cn4C)n2)c(OC)cc1N(C)CCN(C)C` [Example 13, N-(5-((4-(3-Chloro-1-methyl-1H-pyrrolo[2,3-b]pyridin-5-yl)pyrimidin-2-yl)amino)-2-((2-(dimethylamino)ethyl)(methyl)amino)-4-methoxyphenyl)acrylamide], for which the IC50 in the series on PC-9 cells came to 4.64 nM. In addition, in the series with H1975 cells, the IC50 worked out at 2.98 nM. In the series “Mouse in vivo PK study [1]”, the F turned out to be 17.3%, the AUC is 169 ng·h/mL, the clearance was 99 mL/min/kg and the half-life was 91.2 min. Besides, in “Mouse in vivo PK study [2]”, the AUC came to 486 ng·h/mL, the Cmax is 63.5 ng/mL and the half-life is 366 min. The compound further showed an IC50 in series [3] of 1650 nM.

With `C=CC(=O)Nc1cc(Nc2nccc(-c3ccc4c(c3)c(C)cn4C)n2)c(OC)cc1N(C)CCN(C)C` [Example 12, N-(5-((4-(1,3-Dimethyl-1H-indol-5-yl)pyrimidin-2-yl)amino)-2-((2-(dimethylamino)ethyl)(methyl)amino)-4-methoxyphenyl)acrylamide], the IC50 in the series on PC-9 cells stood at 19.1 nM; with H1975 cells, 16.8 nM; in the series on A431 cells, 2430 nM; in series [4], 11.8 nM; in series [5] it was 7.73 nM; in series [3] it was 4080 nM. This compound gave an IC50 in [6] of 63.6 nM.

As for `C=CC(=O)Nc1cc(Nc2nccc(-c3cccc4c3ccn4C)n2)c(OC)cc1N(C)CCN(C)C` [Example 25, N-(2-((2-(dimethylamino)ethyl)(methyl)amino)-4-methoxy-5-((4-(1-methyl-1H-indol-4-yl)pyrimidin-2-yl)amino)phenyl)acrylamide], the IC50 with PC-9 cells was found to be 16.2 nM; with H1975 cells, 12.6 nM; with A431 cells, 1130 nM.

Consider `C=CC(=O)Nc1cc(Nc2nccc(-c3cc(C#N)c4c(c3)c(C)cn4C)n2)c(OC)cc1N(C)CCNC` [Example 29, N-(5-((4-(7-Cyano-1,3-dimethyl-1H-indol-5-yl)pyrimidin-2-yl)amino)-4-methoxy-2-(methyl(2-(methylamino)ethyl)amino)phenyl)acrylamide], for which the values for the IC50 with PC-9 cells, with H1975 cells and in the series with A431 cells were 51.9 nM, 23.6 nM and 1370 nM, respectively.

Take `C=CC(=O)Nc1cc(Nc2nccc(-c3cccc4c3cnn4C)n2)c(OC)cc1N(C)CCN(C)C` [Example 10, N-(2-((2-(Dimethylamino)ethyl)(methyl)amino)-4-methoxy-5-((4-(1-methyl-1H-indazol-4-yl)pyrimidin-2-yl)amino)phenyl)acrylamide]: the figures for the IC50 in the series on PC-9 cells, in the series on H1975 cells and with A431 cells were 16.5 nM, 12.7 nM and 695 nM, respectively.
